Measurements as given in ChEMBL document CHEMBL1201862, “PubChem BioAssay data set” (2004).
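Exposure lasted 48 hours, with cells grown in 96-well plates and compounds tested at five concentrations. GI50 is the concentration that inhibits growth by half.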 The source made the active and inactive calls. Rule as the data show it: active = GI50 up to about 1.1 µM and inactive = higher.

Tests used:
Experiment in all cases: NCI-60 cell line screen, 48 h
M19-MEL = test system: M19-MEL
KM-20L2 = test system: KM-20L2
RXF 631 = test system: RXF 631
DMS-114 = test system: DMS-114
HOP-18 = test system: HOP-18
DLD-1 = test system: DLD-1
XF498 = test system: XF498
LXFL 529 = test system: LXFL 529

Measured: GI50

Cc1c(C(=O)/C=C/c2ccco2)[n+]([O-])c2ccccc2[n+]1[O-]
inactive: M19-MEL > 100 µM | KM-20L2 > 100 µM | RXF 631 18.6 µM | DMS-114 73.5 µM | HOP-18 > 100 µM | DLD-1 > 100 µM | XF498 > 100 µM | LXFL 529 > 100 µM

O=C(Cc1ccccc1)N/N=C(\C1=Nc2ccc([N+](=O)[O-])cc2NC1O)C(O)c1ccc([N+](=O)[O-])cc1 (configuration not stated)
inactive: M19-MEL > 100 µM | KM-20L2 > 100 µM | RXF 631 > 100 µM | HOP-18 > 100 µM | DLD-1 > 100 µM | XF498 > 100 µM | LXFL 529 42.6 µM

COC(=O)CCC(NC(=S)N/N=C(\C)c1cnc2ccccc2n1)C(=O)OC (configuration not stated)
inactive: KM-20L2 15.5 µM | RXF 631 52.6 µM | HOP-18 39.4 µM | DLD-1 29 µM | XF498 > 100 µM | LXFL 529 29.9 µM

CC1=NN(c2ccccc2)C(=O)C1=C1SCCS1
inactive: M19-MEL 41.8 µM | KM-20L2 > 65.6 µM | RXF 631 > 89.7 µM | DMS-114 > 46.3 µM | HOP-18 36.3 µM | DLD-1 32.6 µM | XF498 32.7 µM | LXFL 529 > 67.9 µM

CCOP(=O)(OCC)C(C(=O)OC)C(=O)C(=O)Nc1c(C)cc(Br)cc1C (configuration not stated)
inactive: M19-MEL > 100 µM | KM-20L2 > 100 µM | RXF 631 > 100 µM | DMS-114 > 100 µM | HOP-18 49.7 µM | DLD-1 > 100 µM | XF498 > 100 µM | LXFL 529 > 100 µM
